Measured values as given in patent USRE37421E, “Rapamycin derivatives” (SmithKline Beecham Corporation, priority 1999, dated 2001).

What follows are compounds tested on Spleen cells from BDF1 female mice (assay: Mitogenesis Assay for Immunosuppressive Activity (concanavalin A-stimulated spleen cells, 3H-thymidine uptake)). Conditions: BDF1 mouse spleen cells, Concanavalin A 5 μg/ml, 72 hours.
Type: cell-based
Experimental: Spleen cells from BDF1 female mice were established in RPMI with 10% fetal calf serum at 5×10^6 /mL. […] Concanavalin A (5μ g/ml)was added as the mitogenic stimulus, and the final volume in the microtiter wells was adjusted to 200μ L with RPMI. Cell cultures were incubated for 72 hours at 37° C. in a 5% CO2 atmosphere and pulsed with 0.5μ Ci ^3 H-thymidine (specific activity […]) for the last 18 hours of the 72 hour culture. The cells were harvested on an automated multiple sample harvester and cell-associated radioactivity counted in a Beckman liquid scintillation counter. The results are expressed as the mean values derived from quadruplicate measurements. Cell viability was determined by trypan blue exclusion after 72 hours of incubation. Compounds to be tested were added to the microtiter plates at the appropriate dilutions prior to the addition of cells.

IC50 [nM]	SMILES
1 to 10	CO[C@H]1C[C@@H]2CC[C@@H](C)[C@@](O)(O2)C(O)C(=O)N2CCCC[C@H]2C(=O)O[C@H]([C@H](C)C[C@@H]2CC[C@@H](O)[C@H](OC)C2)CC(=O)[C@H](C)/C=C(\C)[C@@H](O)[C@@H](OC)C(O)[C@H](C)C[C@H](C)/C=C/C=C/C=C/1C (single isomer, unassigned) [Ex. 2, isomer 2, 14,30-Bisdihydrorapamycin]
2	CO[C@H]1C[C@@H]2CC[C@@H](C)[C@@](O)(O2)C(=O)C(=O)N2CCCC[C@H]2C(=O)O[C@H]([C@H](C)C[C@@H]2CC[C@@H](O)[C@H](OC)C2)CC(=O)[C@H](C)/C=C(\C)[C@@H](O)[C@@H](OC)C(O)[C@H](C)C[C@H](C)/C=C/C=C/C=C/1C (single isomer, unassigned) [Ex. 4, isomer 1, 30-Dihydro-rapamycins]
0.1 to 1	CO[C@H]1C[C@@H]2CC[C@@H](C)[C@@](O)(O2)C(=O)C(=O)N2CCCC[C@H]2C(=O)O[C@H]([C@H](C)C[C@@H]2CC[C@@H](O)[C@H](OC)C2)CC(=O)[C@H](C)/C=C(\C)[C@@H](O)[C@@H](OC)C(O)[C@H](C)C[C@H](C)/C=C/C=C/C=C/1C (single isomer, unassigned) [Ex. 4, isomer 2, 30-Dihydro-rapamycins]

Same assay, conditions: Mus musculus, Concanavalin A 5 μg/ml, 72 hours

IC50 [nM]	SMILES
1 to 10	CO[C@H]1C[C@@H]2CC[C@@H](C)[C@@](O)(O2)C(O)C(=O)N2CCCC[C@H]2C(=O)O[C@H]([C@H](C)C[C@@H]2CC[C@@H](O)[C@H](OC)C2)CC(=O)[C@H](C)/C=C(\C)[C@@H](O)[C@@H](OC)C(O)[C@H](C)C[C@H](C)/C=C/C=C/C=C/1C (single isomer, unassigned) [Ex. 2, isomer 1, 14,30-Bisdihydrorapamycin]
100 to 1000	CO[C@H]1C[C@@H]2CC[C@@H](C)[C@@](OC)(O2)C(O)C(=O)N2CCCC[C@H]2C(=O)O[C@H]([C@H](C)C[C@@H]2CC[C@@H](O)[C@H](OC)C2)CC(=O)[C@H](C)/C=C(\C)[C@@H](O)[C@@H](OC)C(O)[C@H](C)C[C@H](C)/C=C/C=C/C=C/1C (single isomer, unassigned) [Ex. 3, major isomer, 14,30-Bisdihydro-13-O-methylrapamycins]
> 1000	CO[C@H]1[C@@H](O)[C@H](C)C[C@H](C)/C=C/C=C/C=C(\C)[C@@H](OC)C[C@@H]2CC[C@@H](C)[C@](O)(CC(=O)N3CCCC[C@H]3C(=O)O[C@H]([C@H](C)C[C@@H]3CC[C@@H](O)[C@H](OC)C3)CC(=O)[C@H](C)/C=C(\C)[C@H]1O)O2 [Ex. 6, 14-Desoxo-30 (S) -dihydro-rapamycin]

Further lines, the compound ahead of its results:

SMILES	IC50 [nM]
CO[C@H]1C[C@@H]2CC[C@@H](C)[C@@](O)(O2)C(O)C(=O)N2CCCC[C@H]2C(=O)O[C@H]([C@H](C)C[C@@H]2CC[C@@H](O)[C@H](OC)C2)CC(=O)[C@H](C)/C=C(\C)[C@@H](O)[C@@H](OC)C(=O)[C@H](C)C[C@H](C)/C=C/C=C/C=C/1C (single isomer, unassigned; isomer 14) [Ex. 1, major isomer, 14-Dihydrorapamycin]	10
CO[C@H]1C[C@@H]2CC[C@@H](C)[C@@](O)(O2)C(=O)C(=O)N2CCCC[C@H]2C(=O)O[C@H]([C@H](C)C[C@@H]2CC[C@@H](O)[C@H](OC)C2)CC(=O)[C@H](C)/C=C(\C)[C@H]2OC(C)(C)OC([C@H](C)C[C@H](C)/C=C/C=C/C=C/1C)[C@@H]2OC [Ex. 5, 30-Dihydro-Rapamycin-28, 30-Acetonide]	100 to 1000
